According to publication PMC2760346 (Bioorganic & medicinal chemistry, 2009):

Key:
human P2Y14 receptor [1] = target: T1, human P2Y14 receptor (Homo sapiens, UniProt Q15391); settings: cited from earlier work
T1 sequence (Q15391 1-338): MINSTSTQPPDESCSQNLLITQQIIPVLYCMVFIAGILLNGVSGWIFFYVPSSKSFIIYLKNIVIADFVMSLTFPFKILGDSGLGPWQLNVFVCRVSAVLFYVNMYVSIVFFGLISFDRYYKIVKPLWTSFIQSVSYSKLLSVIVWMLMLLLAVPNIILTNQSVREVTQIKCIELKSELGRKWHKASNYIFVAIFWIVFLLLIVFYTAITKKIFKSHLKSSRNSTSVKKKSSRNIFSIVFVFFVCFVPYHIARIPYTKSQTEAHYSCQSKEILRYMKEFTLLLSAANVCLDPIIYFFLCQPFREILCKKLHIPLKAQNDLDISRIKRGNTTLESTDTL

human P2Y2 receptor = human P2Y2 receptor (Homo sapiens, UniProt P41231); type: cell-based; settings: at concentrations up to 10 μM
human P2Y14 receptor [2] = target: T1, human P2Y14 receptor; assay: Stimulation of PLC; type: cell-based; settings: for fold less potent than 1 at the P2Y14 receptor: relative to 1; for activation of the P2Y14 receptor, % of full activation: at 10 μM
rat P2Y14 receptor = settings: cited from earlier work

Chain of human P2Y2 receptor (P41231 whole entry): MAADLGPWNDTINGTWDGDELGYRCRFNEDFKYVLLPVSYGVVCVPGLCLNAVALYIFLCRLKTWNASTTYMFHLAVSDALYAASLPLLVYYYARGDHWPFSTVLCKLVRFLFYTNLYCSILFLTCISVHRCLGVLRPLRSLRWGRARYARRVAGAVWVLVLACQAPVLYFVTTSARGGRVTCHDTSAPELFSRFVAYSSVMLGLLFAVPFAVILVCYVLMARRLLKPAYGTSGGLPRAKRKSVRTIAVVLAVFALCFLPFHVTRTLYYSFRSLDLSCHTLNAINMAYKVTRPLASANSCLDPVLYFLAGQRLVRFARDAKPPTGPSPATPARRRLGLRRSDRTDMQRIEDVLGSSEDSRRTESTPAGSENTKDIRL

Compound: O=c1ccn(C2CC(O)C(COP(=O)(O)OP(=O)(O)OC3OC(CO)C(O)C(O)C3O)O2)c(=O)[nH]1 (stereo not shown) [2′-deoxy-UDPG]
- activity at the P2Y14 receptor (human P2Y14 receptor [1]): inactive

Compound: O=c1ccn([C@@H]2O[C@H](COP(=O)(O)OP(=O)(O)O[C@H]3O[C@H](CO)[C@@H](O)[C@H](O)[C@H]3O)[C@@H](O)[C@H]2O)c(=S)[nH]1 [Compound 2, 2-thio-UDP-[1″]glucose]
- activity at the human P2Y2 receptor (activation of PLC) (human P2Y2 receptor): inactive
- fold increase in P2Y14 potency (human P2Y14 receptor [1]; relative to 1): 7 fold

Compound: CO/N=c1/ccn([C@@H]2O[C@H](COP(=O)(O)OP(=O)(O)O[C@H]3O[C@H](CO)[C@@H](O)[C@H](O)[C@H]3O)[C@@H](O)[C@H]2O)c(=O)[nH]1 [Compound 4, Diphosphoric Acid 1″-α-D-[1″]Glucopyranosyl Ester 2-((N^4-methoxy)cytidin-5′-yl)ester]
- agonist activity at the P2Y14 receptor (human P2Y14 receptor [2]): only weakly active

Compound: O=c1ccn([C@@H]2O[C@H](COP(=O)(O)OP(=O)(O)O[C@H]3O[C@H](CO)[C@@H](O)[C@H](O)[C@H]3F)[C@@H](O)[C@H]2O)c(=O)[nH]1 [Compound 11, UDP-2″-F-[1″]2″-deoxy glucose]
- fold less potent than 1 at the P2Y14 receptor (human P2Y14 receptor [2]): 9.6 fold

Compound: O=c1ccn([C@@H]2O[C@H](COP(=O)(O)OP(=O)(O)O[C@H]3O[C@H](CO)[C@@H](O)[C@H](F)[C@H]3O)[C@@H](O)[C@H]2O)c(=O)[nH]1 [Compound 12, UDP-3″-F-[1″]3″-deoxy glucose]
- activity at the human P2Y2 receptor (activation of PLC) (human P2Y2 receptor): inactive

Compound: O=c1ccn([C@@H]2O[C@H](COP(=O)(O)OP(=O)(O)O[C@H]3O[C@H](CO)[C@@H](F)[C@H](O)[C@H]3O)[C@@H](O)[C@H]2O)c(=O)[nH]1 [Compound 13, UDP-4″-F-[1″]4″-deoxy glucose]
- fold less potent than 1 at the P2Y14 receptor (human P2Y14 receptor [2]): 2 fold

Compound: O=c1ccn([C@@H]2O[C@H](COP(=O)(O)OP(=O)(O)O[C@H]3O[C@H](CF)[C@@H](O)[C@H](O)[C@H]3O)[C@@H](O)[C@H]2O)c(=O)[nH]1 [Compound 14, UDP-6″-F-[1″]6″-deoxy glucose]
- fold less potent than 1 at the P2Y14 receptor (human P2Y14 receptor [2]): 3.5 fold

Compound: NCCNC(=O)[C@H]1O[C@H](OP(=O)(O)OP(=O)(O)OC[C@H]2O[C@@H](n3ccc(=O)[nH]c3=O)[C@H](O)[C@@H]2O)[C@H](O)[C@@H](O)[C@@H]1O [Compound 16, Diphosphoric Acid 1″-α-D-[1″](Glucuronic acid-N-(2-amino-ethyl amide))pyranosyl Ester 2-(uridin-5′-yl)ester]
- efficacy at the P2Y14 receptor (human P2Y14 receptor [2]): fully activated the receptor

Compound: CC(=O)NCCNC(=O)[C@H]1O[C@H](OP(=O)(O)OP(=O)(O)OC[C@H]2O[C@@H](n3ccc(=O)[nH]c3=O)[C@H](O)[C@@H]2O)[C@H](O)[C@@H](O)[C@@H]1O [Compound 17a, Diphosphoric Acid 1″-α-D-[1″](Glucuronic acid-N-(2-acetylethyl amide))pyranosyl Ester 2-(uridin-5′-yl)ester]
- activity at the human P2Y2 receptor (activation of PLC) (human P2Y2 receptor): inactive
- efficacy at the P2Y14 receptor (human P2Y14 receptor [2]): fully activate

Compound: CC(C)(C)OC(=O)NCCNC(=O)[C@H]1O[C@H](OP(=O)(O)OP(=O)(O)OC[C@H]2O[C@@H](n3ccc(=O)[nH]c3=O)[C@H](O)[C@@H]2O)[C@H](O)[C@@H](O)[C@@H]1O [Compound 17b, Diphosphoric Acid 1″-α-D-[1″] (Glucuronic acid-N-(2-t-butyloxycarbonylethyl amide))pyranosyl Ester 2-(uridin-5′-yl)ester]
- efficacy at the P2Y14 receptor (human P2Y14 receptor [2]): fully activate

Compound: O=c1ccn([C@@H]2O[C@H](COP(=O)(O)OP(=O)(O)OC[C@H]3O[C@H](O)C[C@@H](O)[C@@H]3O)[C@@H](O)[C@H]2O)c(=O)[nH]1 [Compound 20, Up2-[6″]2″-deoxyglucose]
- activation of the P2Y14 receptor, % of full activation (human P2Y14 receptor [2]): less than 50%

Compound: O=c1ccn([C@@H]2O[C@H](COP(=O)(O)OP(=O)(O)OC[C@H]3O[C@H](O)[C@@H](O)[C@@H]3O)[C@@H](O)[C@H]2O)c(=O)[nH]1 [Compound 22, Up2-[5″]arabinose]
- fold decrease in P2Y14 potency on inversion of the 2″-hydroxyl configuration (human P2Y14 receptor [2]; relative to 21): 2 fold

Compound: O=c1ccn([C@@H]2O[C@H](COP(=O)(O)OP(=O)(O)OC[C@H]3O[C@](O)(CO)[C@@H](O)[C@@H]3O)[C@@H](O)[C@H]2O)c(=O)[nH]1 [Compound 24, Up2-[6″]fructose]
- activity at the human P2Y2 receptor (activation of PLC) (human P2Y2 receptor): inactive

Compound: O=c1ccn([C@@]23C[C@H]2[C@H](COP(=O)(O)OP(=O)(O)O[C@H]2O[C@H](CO)[C@@H](O)[C@H](O)[C@H]2O)[C@@H](O)[C@H]3O)c(=O)[nH]1 [Compound 27, Diphosphoric Acid 1″-α-D-[1″]Glucopyranosyl Ester 2-((S)-Methanocarba-uridin-5′-yl)ester]
- EC50 (human P2Y14 receptor [2]): > 10 µM
- agonist activity at the P2Y14 receptor (human P2Y14 receptor [2]): abolished agonist activity

Compound: O=c1ccn([C@H]2[C@H](O)[C@H](O)[C@@]3(COP(=O)(O)OP(=O)(O)O[C@H]4O[C@H](CO)[C@@H](O)[C@H](O)[C@H]4O)C[C@H]23)c(=O)[nH]1 [Compound 28, Diphosphoric Acid 1″-α-D-[1″]Glucopyranosyl Ester 2-((N)-Methanocarba-uridin-5′-yl)ester]
- EC50 (human P2Y14 receptor [2]): > 10 µM
- agonist activity at the P2Y14 receptor (human P2Y14 receptor [2]): abolished agonist activity

Compound: O=c1ccn([C@@H]2C[C@H](COP(=O)(O)OP(=O)(O)O[C@H]3O[C@H](CO)[C@@H](O)[C@H](O)[C@H]3O)[C@@H](O)[C@H]2O)c(=O)[nH]1 [Compound 29, Diphosphoric Acid 1″-α-D-[1″]Glucopyranosyl Ester 2-(carbocyclic uridin-5′-yl)ester]
- activation of the P2Y14 receptor, % of full activation (human P2Y14 receptor [2]): < 20%

Compound: O=c1ccn([C@@H]2O[C@H](COP(=O)(O)OP(=O)(O)O)[C@@H](O)[C@H]2O)c(=O)[nH]1 [UDP, Uridine 5′-diphosphate]
- type of activity at the rat P2Y14 receptor (rat P2Y14 receptor): potent agonist
- type of activity at the human P2Y14 receptor (human P2Y14 receptor [1]): partial agonist/competitive antagonist
